Measured values published in the supplement of paper PMC10307832.

Assays:
Test in all cases: relative viability (nuclei count vs DMSO), 5 days (fraction); higher = more cells survive
Erlotinib + Pictilisib = compound: C#Cc1cccc(Nc2ncnc3cc(OCCOC)c(OCCOC)cc23)c1 [Erlotinib] + CS(=O)(=O)N1CCN(Cc2cc3nc(-c4cccc5[nH]ncc45)nc(N4CCOCC4)c3s2)CC1 [Pictilisib] (partner 1 µM)
Outline: (§1)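 One day after seeding in 1536-well plates, lung cancer cell lines were dosed by pin tool. Dosing was either single-drug or a fixed anchor-drug dose plus five library-drug doses (not always all listed) in √10 steps. After 5 days, nuclei were stained in one fix-and-stain step and counted on 4× images, and relative viability is the nuclei count of treated wells over that of vehicle wells, given as the median of duplicate plates.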

Erlotinib + Linsitinib = compound: C#Cc1cccc(Nc2ncnc3cc(OCCOC)c(OCCOC)cc23)c1 [Erlotinib] + C[C@]1(O)C[C@@H](c2nc(-c3ccc4ccc(-c5ccccc5)nc4c3)c3c(N)nccn32)C1 [Linsitinib] (partner 1 µM)
Outline: as §1

AT9283 + Foretinib = compound: O=C(Nc1c[nH]nc1-c1nc2ccc(CN3CCOCC3)cc2[nH]1)NC1CC1 [AT9283] + COc1cc2c(Oc3ccc(NC(=O)C4(C(=O)Nc5ccc(F)cc5)CC4)cc3F)ccnc2cc1OCCCN1CCOCC1 [Foretinib] (partner 0.25 µM)
Outline: as §1

AT9283 + OSI-027 = compound: O=C(Nc1c[nH]nc1-c1nc2ccc(CN3CCOCC3)cc2[nH]1)NC1CC1 [AT9283] + COc1cccc2cc(-c3nc([C@H]4CC[C@H](C(=O)O)CC4)n4ncnc(N)c34)[nH]c12 [OSI-027] (partner 0.5 µM)
Outline: as §1

AT9283 + Phenformin = compound: O=C(Nc1c[nH]nc1-c1nc2ccc(CN3CCOCC3)cc2[nH]1)NC1CC1 [AT9283] + N=C(N)NC(=N)NCCc1ccccc1 [Phenformin] (partner 250 µM)
Outline: as §1

Cell Line	relative viability (Erlotinib + Pictilisib; first compound 0.02 µM)	relative viability (Erlotinib + Pictilisib; first compound 0.2 µM)	relative viability (Erlotinib + Pictilisib; first compound 0.6325 µM)	relative viability (Erlotinib + Pictilisib; first compound 2 µM)	relative viability (Erlotinib + Linsitinib; first compound 0.02 µM)	relative viability (Erlotinib + Linsitinib; first compound 0.2 µM)	relative viability (Erlotinib + Linsitinib; first compound 0.6325 µM)	relative viability (Erlotinib + Linsitinib; first compound 2 µM)	relative viability (AT9283 + Foretinib; first compound 0.003 µM)	relative viability (AT9283 + Foretinib; first compound 0.03 µM)	relative viability (AT9283 + Foretinib; first compound 0.09487 µM)	relative viability (AT9283 + Foretinib; first compound 0.3 µM)	relative viability (AT9283 + OSI-027; first compound 0.003 µM)	relative viability (AT9283 + OSI-027; first compound 0.03 µM)	relative viability (AT9283 + OSI-027; first compound 0.09487 µM)	relative viability (AT9283 + OSI-027; first compound 0.3 µM)	relative viability (AT9283 + Phenformin; first compound 0.003 µM)	relative viability (AT9283 + Phenformin; first compound 0.03 µM)	relative viability (AT9283 + Phenformin; first compound 0.09487 µM)	relative viability (AT9283 + Phenformin; first compound 0.3 µM)
H3255	0.497	0.159	0.118	0.0937	0.971	0.297	0.188	0.115	0.924	0.794	0.734	0.183	0.683	0.659	0.548	0.306	0.403	0.328	0.273	0.255
ABC-1	0.656	0.71	0.847	0.589	0.928	0.674	0.776	0.686	1.02	0.15	0.178	0.153	0.436	0.245	0.213	0.201	0.231	0.159	0.233	0.192
NCI-H1299	0.894	0.839	0.918	0.55	1.07	0.968	1.04	0.956	1.13	0.541	0.415	0.373	–	–	–	–	–	–	–	–
NCI-H1993	0.807	0.745	0.946	0.901	0.763	–	0.728	0.85	0.82	0.603	0.61	0.534	0.545	0.528	0.487	0.486	0.474	0.496	0.431	0.408
LOU-NH91	0.471	0.505	0.465	0.475	0.592	0.544	0.487	–	0.913	0.887	0.548	0.375	0.697	0.698	0.599	0.388	0.658	0.673	0.454	0.371
LC-2-ad	0.557	0.427	0.429	0.303	0.889	0.823	0.76	0.611	0.881	0.71	0.336	0.225	0.766	0.476	0.249	0.229	0.449	0.363	0.224	0.193
HCC-15	0.758	–	0.735	0.659	0.927	0.922	1	–	1.02	0.397	0.161	0.19	0.61	0.412	0.153	0.157	0.464	0.277	0.106	0.117
NCI-H650	0.963	0.942	0.904	0.936	0.817	–	1.06	0.843	1.08	0.958	0.332	0.154	0.519	0.528	0.379	0.169	0.366	0.436	0.223	0.165
NCI-H2009	0.836	0.763	0.943	0.732	1.26	1.15	1.2	1.22	1.29	1.07	0.438	0.29	0.652	0.511	0.182	0.101	0.525	0.384	0.309	0.145
COR-L 105	0.406	0.342	0.351	0.332	0.907	0.532	0.385	0.289	0.847	0.673	0.249	0.361	0.606	0.292	0.284	0.231	0.513	0.2	0.303	0.223
NCI-H1975	0.287	0.253	0.307	0.255	0.954	0.974	0.991	–	0.947	0.949	0.82	0.326	0.726	0.706	0.671	0.344	0.418	0.403	0.356	0.183
NCI-H1734	0.494	0.474	0.542	–	0.946	0.849	0.966	0.776	0.904	0.309	0.334	0.246	0.634	0.331	0.237	0.201	0.334	0.278	0.243	0.203
NCI-H838	0.471	0.454	0.503	0.477	1.19	0.93	1.05	0.906	1.05	0.427	0.262	0.281	0.471	0.496	0.178	0.195	0.564	0.23	0.165	0.17
LCLC-103H	0.614	0.587	0.753	0.538	1.1	1.21	1.15	1.01	0.737	0.732	0.258	0.219	0.396	0.451	0.415	0.276	0.295	0.356	0.331	0.205
NCI-H2023	0.3	–	0.218	0.226	0.721	0.574	0.428	0.496	0.739	0.86	0.301	0.108	0.389	0.456	0.148	0.104	0.448	0.389	0.193	0.131
A-427	0.826	0.682	0.829	0.76	1.15	1.1	1.12	1.12	1.01	1.04	0.24	0.216	0.421	0.326	0.159	0.176	0.334	0.178	0.133	0.145
SK-MES-1	0.287	0.245	0.258	0.22	1.09	0.767	0.537	0.434	0.924	0.863	0.604	0.143	0.74	0.619	0.215	0.197	0.748	0.595	0.318	0.243
NCI-H1755	0.422	0.456	0.416	0.374	1.05	–	0.955	0.976	0.871	0.755	0.559	0.496	0.697	0.72	0.396	0.537	0.579	0.626	0.394	0.422
LU99A	0.302	0.31	0.347	0.281	0.616	0.497	0.457	0.446	0.751	0.34	0.233	0.237	0.297	0.233	0.166	0.155	0.804	0.441	0.17	0.199

Cell Line	relative viability (Erlotinib + Pictilisib; first compound 0.02 µM)	relative viability (Erlotinib + Pictilisib; first compound 0.2 µM)	relative viability (Erlotinib + Pictilisib; first compound 0.6325 µM)	relative viability (Erlotinib + Pictilisib; first compound 2 µM)	relative viability (Erlotinib + Linsitinib; first compound 0.02 µM)	relative viability (Erlotinib + Linsitinib; first compound 0.2 µM)	relative viability (Erlotinib + Linsitinib; first compound 0.6325 µM)	relative viability (Erlotinib + Linsitinib; first compound 2 µM)	relative viability (AT9283 + Foretinib; first compound 0.003 µM)	relative viability (AT9283 + Foretinib; first compound 0.03 µM)	relative viability (AT9283 + Foretinib; first compound 0.09487 µM)	relative viability (AT9283 + Foretinib; first compound 0.3 µM)	relative viability (AT9283 + OSI-027; first compound 0.003 µM)	relative viability (AT9283 + OSI-027; first compound 0.03 µM)	relative viability (AT9283 + OSI-027; first compound 0.09487 µM)	relative viability (AT9283 + OSI-027; first compound 0.3 µM)	relative viability (AT9283 + Phenformin; first compound 0.003 µM)	relative viability (AT9283 + Phenformin; first compound 0.03 µM)	relative viability (AT9283 + Phenformin; first compound 0.09487 µM)	relative viability (AT9283 + Phenformin; first compound 0.3 µM)
LCLC-97TM1	0.171	–	0.226	0.211	0.212	–	0.196	0.196	0.938	0.49	0.163	0.176	0.539	0.288	0.0798	0.108	0.445	0.282	0.152	0.137
NCI-H522	–	–	–	–	–	–	–	–	–	–	–	–	0.665	0.57	0.549	0.567	0.555	0.481	0.44	0.377
NCI-H1666	0.466	0.329	0.317	0.267	0.82	0.696	0.62	0.496	1.01	0.725	0.534	0.496	0.782	0.811	0.636	0.483	0.587	0.516	0.404	0.35
NCI-H2347	0.699	0.545	0.827	0.655	1.03	1.04	–	0.834	0.844	0.869	0.672	0.446	0.444	0.427	0.404	0.296	0.413	0.464	0.347	0.363
NCI-H441	0.448	0.495	0.393	0.392	0.686	0.746	0.569	0.326	1.02	0.847	0.396	0.301	0.532	0.574	0.321	0.333	0.858	0.853	0.286	0.244
NCI-H1648	–	–	–	–	–	–	–	–	–	–	–	–	0.277	0.259	0.283	0.246	–	–	–	–
A549	0.471	0.529	0.582	0.406	0.546	0.523	0.63	0.489	0.87	0.118	0.131	0.0419	–	–	–	–	0.284	0.0777	0.0526	0.0427
NCI-H1650	0.483	–	0.578	0.47	–	–	–	–	1.2	0.985	0.46	0.327	0.838	0.575	0.357	0.227	0.491	0.385	0.223	0.175
IA-LM	0.338	–	0.348	0.13	0.62	0.578	0.55	0.595	1.21	0.391	0.105	0.0774	–	–	–	–	–	–	–	–
EBC-1	0.382	0.322	0.309	0.259	0.918	0.969	1.06	0.699	0.107	0.0785	0.0877	0.075	–	–	–	–	–	–	–	–
NCI-H1703	0.233	0.218	0.29	0.243	0.749	0.818	1.08	0.924	0.335	0.254	0.273	0.228	–	–	–	–	–	–	–	–
NCI-H2170	0.316	0.282	0.236	0.176	–	–	–	–	1.06	0.897	0.261	0.21	0.663	0.607	0.298	0.172	0.433	0.375	0.177	0.14
NCI-H2342	–	–	–	–	–	–	–	–	1.2	1.01	0.547	0.367	0.605	0.576	0.508	0.413	0.592	0.423	0.534	0.341
NCI-H1792	0.305	0.183	0.269	0.21	0.466	0.405	0.525	0.432	–	–	–	–	0.727	0.868	0.742	0.404	–	0.255	0.333	0.148
SW 900	–	–	–	–	–	–	–	–	1.1	0.898	0.866	0.366	0.718	0.703	0.388	0.229	0.63	0.595	0.486	0.256
ChaGo-K-1	0.472	0.659	1.05	0.508	–	–	–	–	0.918	0.521	0.319	0.268	0.54	0.575	0.279	0.189	0.476	0.341	0.235	0.204
HCC-44	0.662	0.696	0.752	0.523	0.663	0.664	0.723	0.61	–	–	–	–	0.466	0.555	0.185	0.21	0.124	0.169	0.106	0.0704
Calu-6	0.94	0.856	0.913	0.817	1.01	0.913	0.902	0.816	0.728	0.203	0.214	0.24	–	–	–	–	–	–	–	–
